Assay results taken from patent US4766111A, “Lipids with plasmin inhibitory properties” (Trustees of Boston University, priority 1987, dated 1988).
Values joined by “and” are separate entries in the source; they are usually repeats but may differ in a detail not shown here. Equal entries are not always repeated. One block for each molecule: values may come before it.

Tests used:
Type in all cases: biochemical
[1] = Test 1: plasmin/plasmin-like activity, cleavage of substrate by the sample; settings: Table 2
Description: Each fraction was diluted 1:5 in TRIS buffer (50 mM, pH 7.4, I 0.15), and then mixed with the substrate. […] In Test 2, 30 μl of a 1:40 dilution of normal human plasma were used, and in Test 3, 30 µl of […] of pure plasminogen were used. The results, shown as ΔmA/min, represents the average of five readings.

[2] = test system: normal human blood pooled plasma; assay: Test 2: plasminogen activity, sample incubated with normal human pooled plasma; settings: Table 2
Description: Following this, the samples, diluted, were incubated with normal human blood pooled plasma, which had been diluted 1:40 in TRIS buffer, in proportions of 1 part fraction to two parts plasma. These combinations were incubated to determine if the fractions had plasminogen activator properties.
(§1) In Test 2, 30 μl of a 1:40 dilution of normal human plasma were used, and in Test 3, 30 µl of […] of pure plasminogen were used. The results, shown as ΔmA/min, represents the average of five readings.

plasmin = plasmin (Homo sapiens, UniProt P00747); assay: Antiplasmin/plasmin inhibitory activity; settings: Table 3; for ABSORBANCE: absorbance at 405nm, remaining active plasmin, substrate S-225; for % INHIBITION: by reference to normal human pooled plasma standard curve
Description: Fifty-four different runs were conducted, using various compounds and compositions. […] A standard curve is then constructed, by diluting the pooled plasma, and mixing each dilution with a known plasmin standard. Quantity of active plasmin remaining is measured and this quantity is inversely proportional to antiplasmin activity.

purified plasminogen = purified plasminogen (Homo sapiens, UniProt P00747); assay: Test 3: plasminogen activatory activity, sample incubated with purified plasminogen
Sequence of purified plasminogen (P00747 20-810 limits assumed): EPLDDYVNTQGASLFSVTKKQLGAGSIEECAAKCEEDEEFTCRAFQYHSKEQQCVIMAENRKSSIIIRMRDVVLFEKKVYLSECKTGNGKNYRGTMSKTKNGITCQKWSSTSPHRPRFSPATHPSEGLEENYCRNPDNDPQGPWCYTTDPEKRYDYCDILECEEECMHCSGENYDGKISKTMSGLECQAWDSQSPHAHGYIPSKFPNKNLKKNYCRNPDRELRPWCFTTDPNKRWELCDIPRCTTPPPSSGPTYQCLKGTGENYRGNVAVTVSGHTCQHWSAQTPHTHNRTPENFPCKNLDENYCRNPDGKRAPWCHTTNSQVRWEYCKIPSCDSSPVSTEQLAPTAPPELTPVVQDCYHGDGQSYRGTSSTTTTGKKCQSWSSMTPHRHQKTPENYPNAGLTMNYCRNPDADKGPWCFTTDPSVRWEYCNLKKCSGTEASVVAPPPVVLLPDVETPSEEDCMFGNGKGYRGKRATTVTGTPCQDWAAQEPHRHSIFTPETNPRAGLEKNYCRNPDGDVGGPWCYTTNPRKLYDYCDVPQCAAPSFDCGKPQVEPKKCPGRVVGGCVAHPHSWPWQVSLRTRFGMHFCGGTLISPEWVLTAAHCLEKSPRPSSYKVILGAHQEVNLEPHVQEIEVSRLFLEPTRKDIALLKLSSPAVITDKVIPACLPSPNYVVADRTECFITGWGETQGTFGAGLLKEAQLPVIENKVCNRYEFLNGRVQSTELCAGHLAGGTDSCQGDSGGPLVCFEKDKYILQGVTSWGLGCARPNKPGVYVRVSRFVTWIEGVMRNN
Description: In a third test, each fraction was incubated with purified plasminogen so as to enhance activity, because normal human pooled plasma contains plasma proteins inhibitors.
as §1

[3] = Table I, sample 1:5 dilution, pure plasminogen, average of five readings

ABSORBANCE (plasmin): 0.176 and 0.192
Plasminogen Activatory Activity (purified plasminogen; Table 2): 0
Molecule: CERAMIDE GALACTOSIDE [PURIFIED CERAMIDE GALACTOSIDE]
Plasmin Activity [1]: 0
Plasminogen Activity [2]: 0

ABSORBANCE (plasmin): 0.184
% INHIBITION (plasmin): 0%
Plasminogen Activatory Activity (purified plasminogen; Table 2): 0
Molecule: CERAMIDE TRIHEXOSIDE [PURIFIED CERAMIDE TRIHEXOSIDE]
Plasmin Activity [1]: 0
Plasminogen Activity [2]: 0

ABSORBANCE (plasmin): 0.190
% INHIBITION (plasmin): 0%
Plasminogen Activatory Activity (purified plasminogen; Table 2): 0
Molecule: DIGALACTOSYL DIGLYCERIDE [PURIFIED DIGALACTOSYL DIGLYCERIDE]
Plasmin Activity [1]: 0
Plasminogen Activity [2]: 0

ABSORBANCE (plasmin): Turbid
Molecule: PHOSPHATIDYL INOSITOL 4-MONOPHOSPHATE

ABSORBANCE (plasmin): 0.187
% INHIBITION (plasmin): 0%
Plasminogen Activatory Activity (purified plasminogen; Table 2): 0
Molecule: PHOSPHATIDYL INOSITOL [PURIFIED PHOSPHATIDYL INOSITOL]
Plasmin Activity [1]: 0
Plasminogen Activity [2]: 0

Plasminogen Activatory Activity (purified plasminogen; [3]): 0 ΔmA/min
Molecule: PURE PLASMINOGEN: purified plasminogen used in Test 3, tested alone

% INHIBITION (plasmin): 18%
Molecule: SPHINGOMYELIN

Plasminogen Activatory Activity (purified plasminogen; [3]): 19 ΔmA/min and 18 ΔmA/min
B1: ACTIVATED PURE PLASMINOGEN: activated pure plasminogen, positive reference in Test 3 (protein, UniProt P00747 20-580; P00747 581-810, looked up)
Plasmin heavy chain A: EPLDDYVNTQGASLFSVTKKQLGAGSIEECAAKCEEDEEFTCRAFQYHSKEQQCVIMAENRKSSIIIRMRDVVLFEKKVYLSECKTGNGKNYRGTMSKTKNGITCQKWSSTSPHRPRFSPATHPSEGLEENYCRNPDNDPQGPWCYTTDPEKRYDYCDILECEEECMHCSGENYDGKISKTMSGLECQAWDSQSPHAHGYIPSKFPNKNLKKNYCRNPDRELRPWCFTTDPNKRWELCDIPRCTTPPPSSGPTYQCLKGTGENYRGNVAVTVSGHTCQHWSAQTPHTHNRTPENFPCKNLDENYCRNPDGKRAPWCHTTNSQVRWEYCKIPSCDSSPVSTEQLAPTAPPELTPVVQDCYHGDGQSYRGTSSTTTTGKKCQSWSSMTPHRHQKTPENYPNAGLTMNYCRNPDADKGPWCFTTDPSVRWEYCNLKKCSGTEASVVAPPPVVLLPDVETPSEEDCMFGNGKGYRGKRATTVTGTPCQDWAAQEPHRHSIFTPETNPRAGLEKNYCRNPDGDVGGPWCYTTNPRKLYDYCDVPQCAAPSFDCGKPQVEPKKCPGR
Plasmin light chain B: VVGGCVAHPHSWPWQVSLRTRFGMHFCGGTLISPEWVLTAAHCLEKSPRPSSYKVILGAHQEVNLEPHVQEIEVSRLFLEPTRKDIALLKLSSPAVITDKVIPACLPSPNYVVADRTECFITGWGETQGTFGAGLLKEAQLPVIENKVCNRYEFLNGRVQSTELCAGHLAGGTDSCQGDSGGPLVCFEKDKYILQGVTSWGLGCARPNKPGVYVRVSRFVTWIEGVMRNN
modifications: Plasmin
